Holding throughout (assay): NCI anticancer screen, dose series, 48 h
Test [1] deals with ACHN renal.
The subject of test [2] is EKVX NSCLC.
In test [3] the test system is HCT-15 colon.
Test [4] concerns IGROV1 ovarian.
Test [5] deals with KM12 colon.
For test [6], the system named is MDA-MB-231 breast.
For test [7], the system named is MOLT-4 leukemia.
In test [8] the test system is RPMI-8226 leukemia.
Test [9] relates to U251 CNS.
In test [10] the test system is NCI-H226 lung.

SMILES strings stand for the structures.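 Grown in 96-well plates, cells were treated for 48 hours with each compound at five concentrations. Insufficient inhibition: endpoint recorded as highest concentration tested. GI50 marks 50% less growth. At the TGI there is no net growth.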 A value given as a limit tells only on which side of the number the result lay.

The text below walks through data of PubChem BioAssay (NCI).

Take `CCC(C)C(=O)OCC(=O)c1ccc(-c2ccccc2)cc1` (stereo not drawn): the TGI in test [1] is above 100 µM; in test [2], 84.4 µM; in test [3], 43.3 µM; in test [4] it was above 100 µM; in [5], above 100 µM; in test [6], above 100 µM. Also, the TGI is above 100 µM in test [7], 71.5 µM in test [8] and above 100 µM in [9].

As to `COc1cc(C(C)O)c[n+](CCC2CNc3ccccc32)c1` (stereo not drawn), the TGI in test [1], in test [2], in test [3], in test [4], in test [5] and in test [7] was above 100 µM each time. Besides, the TGI in test [10], in test [8] and in test [9] was above 100 µM in each case.

For `CN1CCN(c2nc(-c3csc(-c4cccs4)n3)cc3ccccc23)CC1`, the GI50 in test [1] was 1.8 µM; in [2] it was 1.58 µM; in test [3], 1.63 µM; in test [4], 1.57 µM; in test [5], 1.84 µM; in test [6], 1.53 µM. The GI50 in test [7] is 2.03 µM; in test [8], 2.09 µM; in [9] it was 1.66 µM. Further, the TGI turned out to be 3.25 µM in test [1]; 3.34 µM in test [2]; 3.15 µM in [3]; 3.12 µM in test [4]; 3.39 µM in test [5]; 3.13 µM in [6]. Further, the TGI turned out to be 4.15 µM in test [7], 4.98 µM in [8] and 3.29 µM in test [9].

For `CCCCCCCCCCCc1c(O)c(=O)c2c(oc3c(=O)c(CCCCCCCCCCC)c(O)c(=O)c3n2-c2ccc(N(C)C)cc2)c1=O`, the TGI was 42.8 µM in [1]; 67.7 µM in [2]; 35.6 µM in [3]; 48.1 µM in test [4]; 26.8 µM in test [5]; above 100 µM in [7]. The TGI was 36.3 µM in test [10], above 100 µM in test [8] and 44.1 µM in test [9].

On to `O=c1[nH]cnc2c(COCCO)c[nH]c12`, for which the TGI in test [1], in test [2], in test [3], in [4], in test [5] and in test [7] was above 100 µM each time. Besides, the TGI in test [10], in test [8] and in [9] was above 100 µM each time.

`CC(=O)c1ccc(NC(=O)C(=O)C(C#N)CC(C)(C)C=O)cc1` (stereo not drawn): the TGI in test [1], in test [2], in test [3], in [4], in [5] and in [7] was above 100 µM in each case. Besides, the TGI in test [10], in test [8] and in test [9] was above 100 µM each time.

As to `CCC1(CN(C)C)CC/C(=C\c2ccc(OC)c(OC)c2)C1=O` (stereo not drawn), the TGI in test [1], in test [2], in [3], in test [4], in test [5] and in test [7] was above 100 µM each time. Moreover, the TGI is above 100 µM in test [10], above 69.1 µM in test [8] and above 100 µM in test [9].

Regarding `COc1cccc(SSc2cccc(OC)c2C(=O)O)c1C(=O)O`, the TGI in test [1], in test [2], in test [3], in test [4], in test [5] and in [7] was above 100 µM in each case. The TGI in test [10], in test [8] and in [9] was above 100 µM each time.

In the case of `N#CC1=C(O)NC(O)=C(C#N)C1c1ccc(C2C(C#N)=C(O)NC(O)=C2C#N)cc1`, the TGI in [1], in test [2], in test [3], in test [4], in test [5] and in test [7] was above 100 µM throughout. For the same molecule, the TGI in test [10], in [8] and in [9] was above 100 µM throughout.

As to `COC(=O)Cc1cc(=O)[nH]c2c1C(=O)CCC2`, the TGI in test [1], in test [2], in test [3], in [4], in test [5] and in test [7] was above 100 µM each time. Further, the TGI in [10], in test [8] and in [9] was above 100 µM throughout.

Turning to `O=C1CCCCC12CCC/C2=N\O` (stereo not drawn), the TGI in test [1], in test [2], in test [3], in [4], in test [5] and in test [7] was above 100 µM each time. In addition, the TGI in test [10], in [8] and in test [9] was above 100 µM in each case.
